Data set [1] in a line: Solubility in deionized water. In kind it is physicochemical.
Data set [2] is described as follows: Pharmacokinetics after single oral dose, powder in capsule, plasma levels of compound (I) by LC/MS. In kind it is in vivo, female Sprague-Dawley rats. The settings on record: Sprague-Dawley rats. The method, then:
A single oral dose in solution and as powder in capsule of the HCl salt of (I), fumarate form D and maleate form A were administered to female Sprague-Dawley rats at 5 mg/kg. Blood samples were collected in the presence of lithium heparin, and were centrifuged to generate plasma. The plasma was then analyzed for compound (I) plasma levels by LC/MS.
All animals involved in the dosing schedule were weighed and assigned numbers. All capsules (Size 9 porcine hard gelatin capsules, Torpac) corresponding with each animal to be dosed were carefully numbered with a fine tip Sharpie. A small plastic weighing dish was placed on the scale, with one capsule lid placed on the dish and the base of the capsule loader with the other part of the capsule was loaded in the reservoir. The balance was tared. A funnel was placed on top of the capsule loading apparatus and the total mass was carefully noted. A piece of 4″×4″ wax paper was folded in half creating a crease down the median. A small amount of finely ground compound (Ground the compound if required using mortar and pestle) was deposited in the crease of the wax paper and refolded. The folded wax paper was gently angled over the capsule loader funnel apparatus. A fine scapula was used to tease an amount of compound powder out of the crease onto the funnel allowing it to trickle into the loading bay and ultimately the capsule. The difference in mass from the total mass was noted. The capsule loading funnel was removed and the balance door closed to ascertain the absolute weight of compound inside the capsule. The funnel was returned to the capsule loading apparatus and loading continued until the desired amount of drug was inside the capsule. Note: When adding minute quantities to the capsule, simply brushed fine powered drug that settled on the funnel into the loading column. The funnel was removed and the weight was recorded. Calculated the amount of actual drug by multiplying weighed material by the bioequivalence ratio. The amount of actual drug was recorded. The capsule lid on the weighing dish was used to close the capsule tightly until it clicked into place.
All animals (n=3/group) were dosed orally in a volume of 5 mL/kg. Following dosing, each rat was bled at each of the designated time points. For control animals, blood was collected by the same procedure. Blood was collected from the lateral saphenous vein. Blood aliquots (˜50 μL) were collected in tubes coated with lithium heparin, mixed gently, then kept on ice and centrifuged at 2,500×g for 15 minutes at RT, within 1 hour of collection. The plasma layer was collected, kept on ice and finally maintained frozen at −80° C. until further processing.
Bioanalytical quantitation using HPLC/tandem quadruple mass spectrometry (HPLC-MS) was performed. Plasma concentrations and […] were calculated and reported.
A 5 mg/mL standard solution in DMSO was diluted 100 fold and subsequently serial diluted in 50% DMSO. Aliquots (2 μL) of the serial dilutions were mixed with 18 μL of control plasma (20 μL total) for use as a standard curve. Plasma samples (20 μL) and standard samples were then diluted 5× with ice cold acetonitrile containing 100 ng/mL verapamil as internal standard (80% (v/v) acetonitrile). Acetonitrile precipitated samples and standards were filtered through 0.22 μm membranes in a 96-well format. Filtrates were then diluted with water to 30% acetonitrile.
LC: 10 μL of each sample and standard were injected onto a Waters Acquity CSH 1.7 μm 2.1×100 mm column at 0.6 mL/min by an Acquity UPLC. The C18 column was equilibrated at 10% acetonitrile. Compounds were eluted with a gradient to 99% acetonitrile. All mobile phases contained 0.1% (v/v) formic acid.
MS: Column eluent was analyzed by electrospray ionization into a tandem quadrupole mass spec system (Waters Xevo TQ). Eluent composition was analyzed for three ion-pairs specific for the internal standard and three ion-pairs specific for the analyte. […]

Data set [3] in a line: Gravimetric moisture sorption (dynamic vapour sorption, 25° C.). In kind it is physicochemical. The settings on record: for Gravimetric Moisture Sorption: 25° C. The method, then: Gravimetric moisture sorption experiments were carried out on a Hiden dynamic vapour sorption analyzer by first holding the sample at 40% RH and 25° C. until an equilibrium weight was reached or for a maximum of four hours. The sample was then subjected to an isothermal (25° C.) adsorption scan from 40 to 90% RH in steps of 10%. The sample was allowed to equilibrate to an asymptotic weight at each point for a maximum of four hours. Following adsorption, a desorption scan from […] RH (at 25° C.) was run in steps of −10% again allowing a maximum of four hours for equilibration to an asymptotic weight. An adsorption scan was then performed from 0% RH to 40% RH in steps of +10% RH.

Data set [4] is described as follows: Differential scanning calorimetry, phase transition of the polymorphs. In kind it is physicochemical. On the procedure:
DSC analyses were carried out on a Mettler 822e differential scanning calorimeter or a TA instruments Q2000. Samples were weighed in an aluminum pan, covered with a pierced lid, and then crimped. Analysis conditions were 30-120, 30-200, 30-300° C. and 40-300° C. ramped at 10° C./min.
Form D can be directly prepared as follows: A 250-mL three neck RBF equipped with a stir bar was charged with compound (I) (6.01 g, 11 mmol) and fumaric acid (1.41 g, 12 mmol). Acetone (50 mL) was added and the slurry was heated to 50° C. until the solution became clear. Precipitation was observed after 10 min, and stirring was continued for an additional 30 min. MTBE (25 mL) was added and the solution was cooled to rt and stirred overnight. The solids were filtered and dried under vacuum at 60° C. for 2 d to give the title compound (I) as a white solid (6.65 g, 91%).

The values below come from patent publication US10472353B2, “Salt and crystal forms of PLK-4 inhibitor” (University Health Network, priority 2013, dated 2019).

Where a name gives a salt, the structure may show the parent alone. Read-outs that look alike come from different tables or passages of the source.

In the case of `COc1ccc2c(c1)[C@]1(C[C@H]1c1ccc3c(/C=C/c4ccc(CN5C[C@@H](C)O[C@@H](C)C5)cc4)n[nH]c3c1)C(=O)N2` [Fumarate C], the “Solubility in DI water” value in data set [1] turned out to be 0.625 mg/mL.

As for `COc1ccc2c(c1)[C@]1(C[C@H]1c1ccc3c(/C=C/c4ccc(CN5C[C@@H](C)O[C@@H](C)C5)cc4)n[nH]c3c1)C(=O)N2` [HCl], the “Solubility in DI water” value in data set [1] was at least 100 mg/mL. The AUC(0-t) in data set [2] (female, Sprague-Dawley, rat, plasma, po, 5 mg/kg, read-out: AUC0-tlast) came to 2400 ng·h/mL. Moreover, in data set [2] (female, Sprague-Dawley, rat, plasma, po, 5 mg/kg, read-out: Cmax), the highest concentration (Cmax) was determined as 250 ng/mL.

For `COc1ccc2c(c1)[C@]1(C[C@H]1c1ccc3c(/C=C/c4ccc(CN5C[C@@H](C)O[C@@H](C)C5)cc4)n[nH]c3c1)C(=O)N2` [Fumarate B], the “Gravimetric Moisture Sorption” value in data set [3] (60% RH) was found to be 3.7 wt % 60% RH. In data set [3] (90% RH), the “Hydrate formed on moisture sorption” value is on record as “tetrahydrate” and the “Gravimetric Moisture Sorption” value is recorded as 10.5 wt % 90% RH. Moreover, the “Hygroscopicity (in words)” value in data set [3] (listed as Form B) is reported as “hygroscopic”.

On to `COc1ccc2c(c1)[C@]1(C[C@H]1c1ccc3c(/C=C/c4ccc(CN5C[C@@H](C)O[C@@H](C)C5)cc4)n[nH]c3c1)C(=O)N2` [1:1 Compound (I) fumarate], for which, in data set [3], the “Hygroscopicity (in words)” value is “non-hygroscopic”.

In data set [2] (5.0 mg/kg), `COc1ccc2c(c1)[C@]1(C[C@H]1c1ccc3c(/C=C/c4ccc(CN5C[C@@H](C)O[C@@H](C)C5)cc4)n[nH]c3c1)C(=O)N2` [Maleate (form A)] returned an AUC0-tlast of 1500 ng·h/mL and a maximum concentration (Cmax) of 200 ng/mL. The “Gravimetric Moisture Sorption” value in data set [3] (60% RH, listed as Maleate A) is 1.3 wt %, 60% RH. Further, in data set [3] (90% RH, listed as Maleate A), the “Gravimetric Moisture Sorption” value is 2.2 wt %, 90% RH.

With `COc1ccc2c(c1)[C@]1(C[C@H]1c1ccc3c(/C=C/c4ccc(CN5C[C@@H](C)O[C@@H](C)C5)cc4)n[nH]c3c1)C(=O)N2` [1:1 compound (I) maleate], the “Hygroscopicity (in words)” value in data set [3] is given as “non-hygroscopic”.

As for `COc1ccc2c(c1)[C@]1(C[C@H]1c1ccc3c(/C=C/c4ccc(CN5C[C@@H](C)O[C@@H](C)C5)cc4)n[nH]c3c1)C(=O)N2` [Fumarate (form D)], in data set [4], the “Stability among the four fumarate polymorphs (phase transition by DSC)” value is “highest stability”. Further, the “Solubility in DI water” value in data set [1] (listed as Fumarate D) came out at 0.17 mg/mL. In data set [2] (5.0 mg/kg), the AUC0-tlast was 2780 ng·h/mL. This compound also registered a Cmax in data set [2] (5.0 mg/kg) of 270 ng/mL. Further, the “Gravimetric Moisture Sorption” value in data set [3] (60% RH, listed as Fumarate D) is reported as 2.1 wt % 60% RH; in data set [3] (90% RH, listed as Fumarate D), 4.0 wt % 90% RH.

As for `COc1ccc2c(c1)[C@]1(C[C@H]1c1ccc3c(/C=C/c4ccc(CN5C[C@@H](C)O[C@@H](C)C5)cc4)n[nH]c3c1)C(=O)N2` [Phosphate], the “Solubility in DI water” value in data set [1] is at least 100 mg/mL. For the same compound, the “Gravimetric Moisture Sorption” value amounted to 6.1 wt % 60% RH in data set [3] (60% RH) and 10.9 wt % 90% RH in data set [3] (90% RH).

One may read the Cmax as the peak of the concentration-time curve.
